# Test results taken from US12595230B2, “Substituted 6,7-dihydro-5H-benzo[7]annulene compounds and their derivatives, processes for their preparation and therapeutic uses thereof” (Sanofi, priority 2020, dated 2026).
# Molecular target: T1, ERα (Homo sapiens, UniProt P03372)
# T1 construct: host or cells: MCF7
# T1 sequence (P03372 1-595): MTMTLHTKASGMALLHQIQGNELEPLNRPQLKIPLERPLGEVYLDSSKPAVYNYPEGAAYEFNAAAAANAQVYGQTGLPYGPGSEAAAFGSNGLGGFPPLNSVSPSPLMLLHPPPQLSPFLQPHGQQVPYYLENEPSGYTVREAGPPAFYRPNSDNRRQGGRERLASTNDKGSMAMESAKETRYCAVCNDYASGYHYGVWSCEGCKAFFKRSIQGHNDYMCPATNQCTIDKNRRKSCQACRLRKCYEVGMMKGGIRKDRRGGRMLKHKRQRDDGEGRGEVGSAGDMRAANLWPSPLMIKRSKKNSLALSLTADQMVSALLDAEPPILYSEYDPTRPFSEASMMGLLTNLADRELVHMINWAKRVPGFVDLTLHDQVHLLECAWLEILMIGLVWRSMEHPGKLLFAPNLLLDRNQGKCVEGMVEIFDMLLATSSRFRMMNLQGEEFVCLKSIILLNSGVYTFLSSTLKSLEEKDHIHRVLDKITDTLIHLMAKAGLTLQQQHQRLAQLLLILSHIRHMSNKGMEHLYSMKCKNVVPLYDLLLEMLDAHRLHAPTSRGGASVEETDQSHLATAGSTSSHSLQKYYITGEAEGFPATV
# Assay: Estrogen receptor degradation activity: breast cancer cell ERα in cell western assay (MCF7 cells)
# Type: cell-based
# Conditions: for % Degradation At 0.3 μM: 4 hours, relative to fulvestrant 0.1 μM positive control; for DC50: read-out: Degradation IC50
# Procedure, shortened: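 Compounds were applied to MCF7 cells in stripped-serum, phenol red-free medium for 4 h at final 0.3–0.0000018 μM, with fulvestrant (0.1 μM) as control. Value: IC50 (nM) for 50% ERα degradation.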
# [1] = 4 hours post compound addition, concentration which degrades 50% of the estrogen receptor
SMILES,% Degradation At 0.3 μM [%],DC50 [1] [nM],IC50 [1] [nM]
"Cc1c(Cl)cccc1C1=C(c2ccc(CC3CN(CCC(F)F)C3)cc2)c2ccc(C(=O)O)cc2CCC1 [Example 293, 8-(3-chloro-2-methylphenyl)-9-(4-((1-(3,3-difluoropropyl)azetidin-3-yl)methyl)phenyl)-6,7-dihydro-5H-benzo[7]annulene-3-carboxylic acid]",86,0.6,–
"Cc1c(Cl)cccc1C1=C(c2ccc(CC3CN(CCCF)C3)cc2)c2ccc(C(=O)O)cc2CCC1.Cl [Example 212, 8-(3-chloro-2-methylphenyl)-9-(4-((1-(3-fluoropropyl)azetidin-3-yl)methyl)phenyl)-6,7-dihydro-5H-benzo[7]annulene-3-carboxylic acid hydrochloride]",87,–,0.1
"CCOC(c1ccc(C2=C(c3ccc(Cl)cc3Cl)CCCc3cc(C(=O)O)ccc32)cc1)C1CN(CCCF)C1 (single isomer, unassigned; isomer 1) [Example 229, 8-(2,4-dichlorophenyl)-9-(4-(ethoxy(1-(3-fluoropropyl)azetidin-3-yl)methyl)phenyl)-6,7-dihydro-5H-benzo[7]annulene-3-carboxylic Acid Isomer 1]",77,0.6,–
"Cl.O=C(O)c1ccc2c(c1)CCCC(c1cccc3c1CCC3(F)F)=C2c1ccc(CC2CN(CCCF)C2)cc1 [Example 54, 8-(1,1-difluoro-2,3-dihydro-1H-inden-4-yl)-9-(4-((1-(3-fluoropropyl)azetidin-3-yl)methyl)phenyl)-6,7-dihydro-5H-benzo[7]annulene-3-carboxylic acid hydrochloride]",94,0.6,–
"NC(c1ccc(C2=C(c3ccc(Cl)cc3Cl)CCCc3cc(C(=O)O)ccc32)cc1)C1CN(CCCF)C1 (single isomer, unassigned; isomer 2) [Example 244, 9-(4-(Amino(1-(3-fluoropropyl)azetidin-3-yl)methyl)phenyl)-8-(2,4-dichlorophenyl)-6,7-dihydro-5H-benzo[7]annulene-3-carboxylic Acid Isomer 2]",86,13.6,–
"O=C(O)c1ccc2c(c1)CCCC(C1CCOCC1)=C2c1ccc(CC2CN(CCCF)C2)cc1 [Example 38, 9-(4-((1-(3-fluoropropyl)azetidin-3-yl)methyl)phenyl)-8-(tetrahydro-2H-pyran-4-yl)-6,7-dihydro-5H-benzo[7]annulene-3-carboxylic acid]",83,7,–
"O=C(O)c1ccc2c(c1)CCCC(c1ccc(F)cc1C(F)(F)F)=C2c1ccc(CC2(F)CN(CCCF)C2)cc1 [Example 241, 9-(4-((3-fluoro-1-(3-fluoropropyl)azetidin-3-yl)methyl)phenyl)-8-(4-fluoro-2-(trifluoromethyl)phenyl)-6,7-dihydro-5H-benzo[7]annulene-3-carboxylic acid]",92,3.7,–
"CCOC(c1ccc(C2=C(c3ccc(Cl)cc3Cl)CCCc3cc(C(=O)O)ccc32)cc1)C1CN(CCCF)C1 (single isomer, unassigned; isomer 2) [Example 230, 8-(2,4-dichlorophenyl)-9-(4-(ethoxy(1-(3-fluoropropyl)azetidin-3-yl)methyl)phenyl)-6,7-dihydro-5H-benzo[7]annulene-3-carboxylic Acid Isomer 2]",78,0.7,–
"COc1c(F)cccc1C1=C(c2ccc(CC3CN(CCCF)C3)cc2)c2ccc(C(=O)O)cc2CCC1 [Example 335, 8-(3-fluoro-2-methoxyphenyl)-9-(4-((1-(3-fluoropropyl)azetidin-3-yl)methyl)phenyl)-6,7-dihydro-5H-benzo[7]annulene-3-carboxylic acid]",93,0.6,–
"O=C([O-])c1ccc2c(c1)OCCC(c1ccc(F)cc1Cl)=C2c1ccc(CC2CN(CCCF)C2)cc1.[Na+] [Example 264, sodium 4-(2-chloro-4-fluorophenyl)-5-(4-((1-(3-fluoropropyl)azetidin-3-yl)methyl)phenyl)-2,3-dihydrobenzo[b]oxepine-8-carboxylate]",95,1.1,–
"COc1c(C(=O)O)ccc2c1CCCC(c1ccc(F)cc1C(F)(F)F)=C2c1ccc(CC2CN(CCCF)C2)cc1.Cl [Example 283, 8-(4-fluoro-2-(trifluoromethyl)phenyl)-9-(4-((1-(3-fluoropropyl)azetidin-3-yl)methyl)phenyl)-4-methoxy-6,7-dihydro-5H-benzo[7]annulene-3-carboxylic acid hydrochloride]",90,93.3,–
"O=C(O)c1ccc2c(c1)CCCC(c1ncc(Cl)cc1C(F)(F)F)=C2c1ccc(CC2CN(CCCF)C2)cc1 [Example 218, 8-(5-chloro-3-(trifluoromethyl)pyridin-2-yl)-9-(4-((1-(3-fluoropropyl)azetidin-3-yl)methyl)phenyl)-6,7-dihydro-5H-benzo[7]annulene-3-carboxylic acid]",92,0.5,–

# Continued by falling DC50 [1], values first:
% Degradation At 0.3 μM [%],DC50 [1] [nM],IC50 [1] [nM],SMILES
87,0.4,–,"CC(C)CC1=C(c2ccc(CC3CN(CCCF)C3)cc2)c2ccc(C(=O)O)cc2CCC1 [Example 37, 9-(4-((1-(3-fluoropropyl)azetidin-3-yl)methyl)phenyl)-8-isobutyl-6,7-dihydro-5H-benzo[7]annulene-3-carboxylic acid]"
89,0.4,–,"Cc1c(C2=C(c3ccc(CC4CN(CCC(F)F)C4)cc3)c3ccc(C(=O)O)cc3CCC2)ccc(F)c1F [Example 275, 8-(3,4-difluoro-2-methylphenyl)-9-(4-((1-(3,3-difluoropropyl)azetidin-3-yl)methyl)phenyl)-6,7-dihydro-5H-benzo[7]annulene-3-carboxylic acid]"
85,0.4,–,"Cc1c(C2=C(c3ccc(CC4CN(CCCF)C4)cc3)c3ccc(C(=O)O)cc3CCC2C)cccc1C(F)(F)F (racemic) [Example 310, 9-(4-((1-(3-fluoropropyl)azetidin-3-yl)methyl)phenyl)-7-methyl-8-(2-methyl-3-(trifluoromethyl)phenyl)-6,7-dihydro-5H-benzo[7]annulene-3-carboxylic acid]"
86,0.4,–,"O=C(O)c1cc2c(cc1F)C(c1ccc(CC3CN(CCCF)C3)cc1)=C(c1ccc(Cl)cc1Cl)CCC2 [Example 206, 8-(2,4-dichlorophenyl)-2-fluoro-9-(4-((1-(3-fluoropropyl)azetidin-3-yl)methyl)phenyl)-6,7-dihydro-5H-benzo[7]annulene-3-carboxylic acid]"
96,0.3,–,"Cl.O=C(O)c1ccc2c(c1)CCCC(c1c(F)cc(F)cc1C(F)F)=C2c1ccc(CC2CN(CCCF)C2)cc1 [Example 284, 8-(2-(difluoromethyl)-4,6-difluorophenyl)-9-(4-((1-(3-fluoropropyl)azetidin-3-yl)methyl)phenyl)-6,7-dihydro-5H-benzo[7]annulene-3-carboxylic acid hydrochloride]"
85,0.3,–,"CC1(C)CCC(C2=C(c3ccc(CC4CN(CCCF)C4)cc3)c3ccc(C(=O)O)cc3CCC2)CC1.Cl [Example 13, 8-(4,4-dimethylcyclohexyl)-9-(4-((1-(3-fluoropropyl)azetidin-3-yl)methyl)phenyl)-6,7-dihydro-5H-benzo[7]annulene-3-carboxylic acid]"
88,0.3,–,"Cc1ccc(C2=C(c3ccc(CC4CN(CCCF)C4)cc3)c3ccc(C(=O)O)cc3CCC2)c(F)c1F.Cl [Example 210, 8-(2,3-difluoro-4-methylphenyl)-9-(4-((1-(3-fluoropropyl)azetidin-3-yl)methyl)phenyl)-6,7-dihydro-5H-benzo[7]annulene-3-carboxylic acid hydrochloride]"
92,0.2,–,"O=C(O)c1ccc2c(c1)CCCC(c1ccc(Cl)cc1Cl)=C2c1ccc(CC2CN(CCC(F)F)C2)cc1 [Example 223, 8-(2,4-dichlorophenyl)-9-(4-((1-(3,3-difluoropropyl)azetidin-3-yl)methyl)phenyl)-6,7-dihydro-5H-benzo[7]annulene-3-carboxylic acid]"
84,0.2,–,"Cc1cc(F)ccc1C1=C(c2ccc(CC3CN(CCC(F)F)C3)cc2)c2ccc(C(=O)O)cc2CCC1 [Example 279, 9-(4-((1-(3,3-difluoropropyl)azetidin-3-yl)methyl)phenyl)-8-(4-fluoro-2-methylphenyl)-6,7-dihydro-5H-benzo[7]annulene-3-carboxylic acid]"
91,0.2,–,"O=C(O)c1ccc2c(c1)CCCC(c1ccccc1C(F)(F)F)=C2c1ccc(CC2CN(CCCF)C2)cc1 [Example 23, 9-(4-((1-(3-fluoropropyl)azetidin-3-yl)methyl)phenyl)-8-(2-(trifluoromethyl)phenyl)-6,7-dihydro-5H-benzo[7]annulene-3-carboxylic acid]"
